Here are results for two substances from patent US20250144176A1, “COMPOSITIONS COMPRISING OSTEOPONTIN (OPN)” (SOCIETE DES PRODUITS NESTLE S.A., priority 2022, published 2025).

The subject of experiment [1] is pneumonia virus of mice (PVM). The experiment in a line: Neonatal mouse model of PVM-induced bronchiolitis: airway smooth muscle remodeling by α-smooth muscle actin immunohistochemistry. Format: in vivo, mice (C57BL/6 pups). As to conditions: 9 dpi; OPNenriched group, remodeling dysregulated in OPN− group; FIG. 7. The source says:
(§1) C57BL/6 pups were either nursed by OPN-sufficient or OPN-deficient dams.
(§2) At postnatal day 5 (PND5), mice receiving OPN-deficient mother's milk were fed with either a whey protein concentrate (WPC) enriched in OPN (OPNenriched group) or a control WPC (OPN− group) once daily for 15 consecutive days.
(§3) In a similar way, at PND5, mice receiving OPN-sufficient mother's milk were fed with control WPC (OPN+ group) once daily for 15 consecutive days.
(§4) At PND10, all animals were infected intra-nasally (i.n.) with 10 PFU of PVM (J3666) to induce bronchiolitis.
(§5) The used OPN-enriched WPC contained 79 g protein per 100 g, and 729 mg OPN per 100 g. The pups in the OPNenriched group were fed the OPN-enriched WPC as a supplement to deliver 12 μg OPN per average gram of bodyweight per day.

The test system of experiment [2] is pneumonia virus of mice (PVM). The experiment in a line: Neonatal mouse model of PVM-induced bronchiolitis: viral load (PVM-positive airway epithelial cells) and airway epithelial sloughing. It counts as in vivo, mice (C57BL/6 pups).
Source text: as §1, §2, §3, §4, §5
To assess whether OPN intervention has an impact on pathogen expansion, viral load in PVM-infected mice was assessed as the percentage of PVM-positive airway epithelial cells (AEC) stained with an antibody against a specific PVM-glycoprotein. […] AEC detachment is a key feature of viral bronchiolitis and known to be associated with disease severity and viral load. Sloughing of the airway epithelium was quantified by measuring the length of sloughed airway epithelium and expressing this as a percentage of the basement membrane length of a single airway.

Experiment [3] has as its system pneumonia virus of mice (PVM). The experiment in a line: Neonatal mouse model of PVM-induced bronchiolitis: lung immune cells counted by multi-colour flow cytometry. It counts as in vivo, mice (C57BL/6 pups).
Source text: as §1, §2, §3, §4, §5
To investigate whether OPN intervention has an impact on immune cell composition, the number of pDCs, CD4+ and CD8+ T cells and neutrophils in lung tissues 5 and/or 9 days post infection were enumerated using multi-colour flow cytometry. Isolated single-cell suspensions from the lungs were washed with PBS/2% FCS, and red blood cells were lysed using Gey's buffer. Cells were washed again, followed by incubation with anti-FcγRIII/II for 15 min at 4° C. Cells were stained using fluorescently labeled antibodies described in the gating strategies herein, with DAPI, 7-AAD, or Zombie NIR used to exclude dead cells.

The next experiment relates to lipopolysaccharide (LPS). As to conditions: early life dietary supplementation; cited from earlier work.
A further experiment concerns immune cell profile. The settings on record: infants fed formula supplemented with bovine OPN; cited from earlier work.

On to osteopontin [OPN], for which the “pathological airway smooth muscle remodeling (ASM area)” value in experiment [1] was “attenuated pathological airway smooth muscle remodeling”. Further, the “virus infected (PVM-positive) airway epithelial cells (AEC), percentage” value in experiment [2] (5 dpi, OPNenriched group vs OPN− group, 12 μg OPN per gram bodyweight per day, once daily for 15 days from PND5, FIG. 2a) is on record as “significant decrease”. Also, the “sloughing of the airway epithelium (percentage of basement membrane length)” value in experiment [2] (9 dpi, OPNenriched group vs OPN+ group, sloughing significantly elevated in OPN− group, FIG. 2b) is reported as “close to the OPN+ group”. Also, the “number of CD4+ cells in lung tissues” value in experiment [3] (5 dpi (peak of viral infection), OPNenriched group vs OPN− group, FIG. 4a) was “significantly higher number”. Moreover, the “CD4+ T cell accumulation in the lungs” value in experiment [3] (9 dpi (peak of immunopathology), OPNenriched group vs OPN− group, FIG. 4b) is given as “significant decline”. Further, the “neutrophil infiltration to the airways (granulocytic inflammation)” value in experiment [3] (9 dpi, FIG. 6) is reported as “reduced granulocytic inflammation”. Further, the “number of pDCs in the lung” value in experiment [3] (OPNenriched group vs OPN− group, FIG. 3) was “increased number”.
Take “bovine OPN: Bovine milk osteopontin, 262 residues, used as dietary supplement in cited studies”: in the experiment on lipopolysaccharide (LPS), the “inflammation resulting from LPS administration” value is “reduced inflammation”. In addition, the “immune cell profile of infants” value in the experiment with immune cell profile is reported as “more similar to breastfed infants”.
